Experimental data: patent US6914045B2, “Glycopeptide antibiotics” (Wyeth Holdings Corporation, priority 2001, dated 2005)
In brackets after ≈: the same amount, converted by molar mass.

What was measured:
Test in all cases: in vitro antibacterial evaluation, MIC by broth dilution
Format in all cases: cell-based
Escherichia coli = conditions: 18 hours at 35° C.
Streptococcus sp. = conditions: broth dilution, 18 hours at 35° C.
In short: (§1)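 Following National Committee for Clinical Laboratory Standards recommendations (M7-A2), susceptibility was measured by dilution in Muller-Hinton II […]. Bacteria were seeded at 5×10^5 CFU/mL against compound concentrations from 64 down to 0.06 μg/mL.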

Enterococcus sp. = conditions: broth dilution, 18 hours at 35° C.
In short: as §1

Staphylococcus sp. = conditions: broth dilution, 18 hours at 35° C.
In short: as §1

CC(c1ccccc1)C1NC(=O)CNC(=O)C(CO)NC(=O)C(CC2CNC(=N)N2C2OC(CO)C(O)C(O)C2O)NC(=O)C(CC2CNC(=N)N2)NC(=O)C(Cc2ccc(OC3OC(CO)C(OC4OC(CO)C(O)C(OCc5ccc(OCc6ccccc6)cc5)C4O)C(O)C3O)cc2)NC1=O (stereo not shown) [Example 246b]
MIC Escherichia coli (ATCC 25922) (Escherichia coli): >128 µg/mL | MIC Escherichia coli (GC 4559) (Escherichia coli): >128 µg/mL | MIC Escherichia coli (GC 4560) (Escherichia coli): 32 µg/mL (≈ 21.9 µM) | MIC Streptococcus agalactiae (GC 4564) (Streptococcus sp.): 64 µg/mL (≈ 43.8 µM) | MIC Streptococcus pneumoniae (ATCC 6301) (Streptococcus sp.): 32 µg/mL (≈ 21.9 µM) | MIC Streptococcus pneumoniae (GC 1894) (Streptococcus sp.): 32 µg/mL (≈ 21.9 µM) | MIC Streptococcus pneumoniae (GC 4565) (Streptococcus sp.): 64 µg/mL (≈ 43.8 µM) | MIC Streptococcus pyogenes (GC 4563) (Streptococcus sp.): 64 µg/mL (≈ 43.8 µM) | MIC Streptococcus pneumoniae (ATCC 6301) (Streptococcus sp.; strain ATCC 6301): 32 µg/mL (≈ 21.9 µM) | MIC Streptococcus pneumoniae (GC 1894) (Streptococcus sp.; strain GC 1894): 32 µg/mL (≈ 21.9 µM) | MIC Streptococcus pyogenes (GC 4563) (Streptococcus sp.; strain GC 4563): 64 µg/mL (≈ 43.8 µM) | MIC Streptococcus agalactiae (GC 4564) (Streptococcus sp.; strain GC 4564): 64 µg/mL (≈ 43.8 µM) | MIC Streptococcus pneumoniae (GC 4565) (Streptococcus sp.; strain GC 4565): 64 µg/mL (≈ 43.8 µM) | MIC Enterococcus avium (GC 4558) (Enterococcus sp.): 64 µg/mL (≈ 43.8 µM) | MIC Enterococcus faecalis (ATCC 29212) (Enterococcus sp.): 128 µg/mL (≈ 87.7 µM) | MIC Enterococcus faecalis (GC 2242) (Enterococcus sp.): 128 µg/mL (≈ 87.7 µM) | MIC Enterococcus faecalis (GC 2691) (Enterococcus sp.): 128 µg/mL (≈ 87.7 µM) | MIC Enterococcus faecalis (GC 3059) (Enterococcus sp.): 128 µg/mL (≈ 87.7 µM) | MIC Enterococcus faecalis (GC 4552) (Enterococcus sp.): 128 µg/mL (≈ 87.7 µM) | MIC Enterococcus faecalis (GC 4553) (Enterococcus sp.): 128 µg/mL (≈ 87.7 µM) | MIC Enterococcus faecalis (GC 4554) (Enterococcus sp.): >128 µg/mL | MIC Enterococcus faecalis (GC 6189) (Enterococcus sp.): 128 µg/mL (≈ 87.7 µM) | MIC Enterococcus faecium (GC 2243) (Enterococcus sp.): 128 µg/mL (≈ 87.7 µM) | MIC Enterococcus faecium (GC 4556) (Enterococcus sp.): 128 µg/mL (≈ 87.7 µM) | MIC Enterococcus faecium (GC 4557) (Enterococcus sp.): 32 µg/mL (≈ 21.9 µM) | MIC Enterococcus faecalis (ATCC 29212) (Enterococcus sp.; strain ATCC 29212): 128 µg/mL (≈ 87.7 µM) | MIC Enterococcus faecalis (GC 2242) (Enterococcus sp.; strain GC 2242): 128 µg/mL (≈ 87.7 µM) | MIC Enterococcus faecium (GC 2243) (Enterococcus sp.; strain GC 2243): 128 µg/mL (≈ 87.7 µM) | MIC Enterococcus faecalis (GC 2691) (Enterococcus sp.; strain GC 2691): 128 µg/mL (≈ 87.7 µM) | MIC Enterococcus faecalis (GC 3059) (Enterococcus sp.; strain GC 3059): 128 µg/mL (≈ 87.7 µM) | MIC Enterococcus faecalis (GC 4552) (Enterococcus sp.; strain GC 4552): 128 µg/mL (≈ 87.7 µM) | MIC Enterococcus faecalis (GC 4553) (Enterococcus sp.; strain GC 4553): 128 µg/mL (≈ 87.7 µM) | MIC Enterococcus faecalis (GC 4554) (Enterococcus sp.; strain GC 4554): >128 µg/mL | MIC Enterococcus faecium (GC 4556) (Enterococcus sp.; strain GC 4556): 128 µg/mL (≈ 87.7 µM) | MIC Enterococcus faecium (GC 4557) (Enterococcus sp.; strain GC 4557): 32 µg/mL (≈ 21.9 µM) | MIC Enterococcus avium (GC 4558) (Enterococcus sp.; strain GC 4558): 64 µg/mL (≈ 43.8 µM) | MIC Enterococcus faecalis (GC 6189) (Enterococcus sp.; strain GC 6189): 128 µg/mL (≈ 87.7 µM) | MIC Coagulase Negative Staphylococcus (GC 4547) (Staphylococcus sp.): 64 µg/mL (≈ 43.8 µM) | MIC Coagulase Negative Staphylococcus (GC 4548) (Staphylococcus sp.): 64 µg/mL (≈ 43.8 µM) | MIC Coagulase Negative Staphylococcus (GC 4549) (Staphylococcus sp.): 32 µg/mL (≈ 21.9 µM) | MIC Coagulase Negative Staphylococcus (GC 4551) (Staphylococcus sp.): 64 µg/mL (≈ 43.8 µM) | MIC Coagulase Negative Staphylococcus (GC 6257) (Staphylococcus sp.): 64 µg/mL (≈ 43.8 µM) | MIC Staphylococcus aureus (ATCC 29213) (Staphylococcus sp.): 64 µg/mL (≈ 43.8 µM) | MIC Staphylococcus aureus (GC 1131) (Staphylococcus sp.): 128 µg/mL (≈ 87.7 µM) | MIC Staphylococcus aureus (GC 3051) (Staphylococcus sp.): 64 µg/mL (≈ 43.8 µM) | MIC Staphylococcus aureus (GC 3053) (Staphylococcus sp.): 128 µg/mL (≈ 87.7 µM) | MIC Staphylococcus aureus (GC 4541) (Staphylococcus sp.): 64 µg/mL (≈ 43.8 µM) | MIC Staphylococcus aureus (GC 4542) (Staphylococcus sp.): 64 µg/mL (≈ 43.8 µM) | MIC Staphylococcus aureus (GC 4544) (Staphylococcus sp.): 64 µg/mL (≈ 43.8 µM) | MIC Staphylococcus aureus (GC 4545) (Staphylococcus sp.): 64 µg/mL (≈ 43.8 µM) | MIC Staphylococcus aureus-SMITH (GC 4543) (Staphylococcus sp.): 64 µg/mL (≈ 43.8 µM) | MIC Staphylococcus haemolyticus (GC 4546) (Staphylococcus sp.): 128 µg/mL (≈ 87.7 µM) | MIC Staphylococcus aureus (ATCC 29213) (Staphylococcus sp.; strain ATCC 29213): 64 µg/mL (≈ 43.8 µM) | MIC Staphylococcus aureus (GC 1131) (Staphylococcus sp.; strain GC 1131): 128 µg/mL (≈ 87.7 µM) | MIC Staphylococcus aureus (GC 3051) (Staphylococcus sp.; strain GC 3051): 64 µg/mL (≈ 43.8 µM) | MIC Staphylococcus aureus (GC 3053) (Staphylococcus sp.; strain GC 3053): 128 µg/mL (≈ 87.7 µM) | MIC Staphylococcus aureus (GC 4541) (Staphylococcus sp.; strain GC 4541): 64 µg/mL (≈ 43.8 µM) | MIC Staphylococcus aureus (GC 4542) (Staphylococcus sp.; strain GC 4542): 64 µg/mL (≈ 43.8 µM) | MIC Staphylococcus aureus-SMITH (GC 4543) (Staphylococcus sp.; strain GC 4543): 64 µg/mL (≈ 43.8 µM) | MIC Staphylococcus aureus (GC 4544) (Staphylococcus sp.; strain GC 4544): 64 µg/mL (≈ 43.8 µM) | MIC Staphylococcus aureus (GC 4545) (Staphylococcus sp.; strain GC 4545): 64 µg/mL (≈ 43.8 µM) | MIC Staphylococcus haemolyticus (GC 4546) (Staphylococcus sp.; strain GC 4546): 128 µg/mL (≈ 87.7 µM) | MIC Coagulase Negative Staphylococcus (GC 4547) (Staphylococcus sp.; strain GC 4547): 64 µg/mL (≈ 43.8 µM) | MIC Coagulase Negative Staphylococcus (GC 4548) (Staphylococcus sp.; strain GC 4548): 64 µg/mL (≈ 43.8 µM) | MIC Coagulase Negative Staphylococcus (GC 4549) (Staphylococcus sp.; strain GC 4549): 32 µg/mL (≈ 21.9 µM) | MIC Coagulase Negative Staphylococcus (GC 4551) (Staphylococcus sp.; strain GC 4551): 64 µg/mL (≈ 43.8 µM) | MIC Coagulase Negative Staphylococcus (GC 6257) (Staphylococcus sp.; strain GC 6257): 64 µg/mL (≈ 43.8 µM)
